Measurements taken from patent publication US20160311886A1, “Constructs Binding to Phosphatidylserine and Their Use in Disease Treatment and Imaging” (Board of Regents, The University of Texas System, priority 2005, published 2016).

Tests used:
ABAE cells = experiment: Induction of PS exposure, 125I-annexin V binding; type: cell-based, bovine; details: ABAE and bEnd.3 cells, immunohistochemically
Description: All reagents were diluted in medium containing 10% serum and incubated with the cells at 37° C. for 24 h.
To study the effect of hypoxia, cells were seeded on 24 well plates and were incubated in a humidified normoxic atmosphere (21% O2, 5% CO2) for 48 h before being transferred to a humidified hypoxic atmosphere (1% O2, 5% CO2, 94% N2) in a sealed chamber (Billups Rothenberg Inc., Del Mar, Ca). Cells were incubated in a hypoxic chamber for 24 h at 37° C. and were then returned to a normoxic environment for 4 h at 37° C. The cells were compared to a parallel culture from an identical passage, seeded on the same day and maintained entirely under normoxic conditions. In some studies, IL-1α (10 ng/ml) and TNFα (20 ng/ml) were added to the medium before transfer to the hypoxic chamber.
After treatment with the reagents described above, treated and control cells were incubated with 7.1 pmoles of ^125I-labeled annexin V (200 μl/well) in the binding buffer. After 2 h incubation at room temperature, cells were washed extensively and dissolved in 0.5 M of NaOH. The entire volume of 0.5 ml was transferred to plastic tubes and counted in a gamma counter. Non-specific binding was determined in the presence of 5 mM EDTA and was subtracted from experimental values. The results were expressed as net pmoles of cell-bound annexin V, normalized per 1×10^6 cells.
Maximal binding of annexin V was determined on cells simultaneously treated with actinomycin D and TNFα (50 ng/ml of each component). As has been previously reported, these agents cause apoptosis and PS exposure in 90-100% of endothelial cells (Lucas et al., 1998). Basal binding of ^125I-annexin V to untreated cells was determined in the presence of medium with 10% serum. The amount of ^125I-annexin V that bound to the untreated cultures was subtracted from that in the treated cultures. Exposure of PS was calculated according to the following formula: cell-bound annexin V (pmoles) under experimental conditions divided by maximal annexin V binding (pmoles), multiplied by 100. Each study was performed in duplicate and was performed at least three times. Mean values were calculated. The SE of the mean values from three separate experiments was less than 5%.

bEnd.3 endothelial cells = experiment: H2O2 induction of PS, anti-PS staining and Trypan Blue exclusion
HUVEC and HMVEC = experiment: Docetaxel-induced PS exposure on endothelial cells, FACS; type: cell-based, human
Description: The induction of PS exposure on endothelial cells by subclinical concentrations of docetaxel was examined in vitro by FACS analysis. […] […] Docetaxel incubations for 48 and 72 hrs were also conducted.

[1] = test system: 3LL, Colo26, MDA-MB-435, B16, Meth A cells; experiment: Docetaxel-induced PS exposure on tumor cell lines, FACS; type: cell-based, mouse, human; details: 10 nM, 24 hrs
Description: The in vitro induction of PS exposure by subclinical concentrations of docetaxel was also examined by FACS analysis using a panel of tumor cell lines. Mouse lewis lung carcinoma 3LL, mouse colon carcinoma Colo26 and human breast cancer MDA-MB-435 cells were treated with 10 nM of docetaxel for 24 hrs and examined by FACS. […] Docetaxel incubations for 48 and 72 hrs were also conducted.

tumor vessels = experiment: Docetaxel-induced PS exposure on tumor vessels; type: in vivo, mouse; details: after docetaxel treatment; 35% before
Text: In such studies, docetaxel treatment of mice increased the percentage of tumor vessels that expose anionic phospholipids from 35% to 60%. No induction of PS was observed on vessels in normal tissues even after systemic treatment with docetaxel.

[2] = test system: Pan02 mouse pancreatic adenocarcinoma; experiment: 3G4 and gemcitabine, pancreatic cancer; type: in vivo; details: 3G4 100 μg, gemcitabine 3.5 mg; day 22
Description: Pan02 mouse pancreatic adenocarcinoma cells were injected into the pancreas of immunocompetent C57BL/6 mice. Treatment was started on day 5 after tumor cell injection. […] Gemcitabine is a pyrimidine anti-metabolite. The animals were sacrificed at day 22 after tumor cell injection, and the tumor weight determined.

[3] = Serum dependence of binding to PS
Description: The serum dependence or independence of the antibodies is also set forth in Table 2 (see also, Example XXX).
The 1B9, 2G7 and 7C5 antibodies behave essentially the same. These antibodies recognize only PS and require serum or serum proteins for binding to PS. The binding of 1B9, 2G7 and 7C5 to various phospholipids in the present example was assayed only in the presence of 10% bovine serum, whereas binding of the other antibodies was tested either in the absence or in the presence of serum.

[4] = Phospholipid specificity ELISA; type: binding
Description: The specificity of the antibodies was determined by ELISA using plates coated with the following phospholipids: PS, phosphatidylserine; PE, phosphatidylethanolamine; PI, phosphatidylinositol; PA, phosphatidic acid; PG, phosphatidylglycerol; PC, phosphatidylcholine; CL, cardiolipin; and SM, sphingomyelin.

MDA-MB-435 breast tumors = experiment: 3G4 and chimeric 3G4 tumor treatment; type: in vivo, mouse; details: MD-MBA-435s; IP 800 μg day 15, 200 μg every two to three days, 400 μg day 35
Description: Tumors were also established using MD-MBA-435s cells and treated as described above. […] The treatment of large L540 tumors, MDA-MB-231 and MD-MBA-435s tumor cells for 60 days was also effective. The antibodies caused tumor vascular injury, thrombosis and necrosis and retarded tumor growth, with no evidence of toxicity.
MD-MBA-435s lucerifase cells were obtained from Dr. Angels Sierra Jimenez, Barcelona, Spain and were grown in 10% DMEM. Mice were injected with tumor cells as described as above, and at 2 weeks post injection, the tumors were measured and the volume recorded. […] Treatment was initiated by IP injection (800 μg) at day 15 and continued with injections of 200 μg every two to three days until the final injection of 400 μg at day 35. Tumor volumes and mouse body weights were measured on injection days. Mice were sacrificed and perfused with saline for 12 minutes. The organs and tumor were removed, snap-frozen in liquid nitrogen and the tumor sectioned for immunohistochemistical analysis.
Groups of 8-10 female SCID mice were injected subcutaneously with 2×10^7 L540 cells or orthotopically with 1×10^7 MDA-MB-435 or MDA-MB-231 cells. BALB/c mice were injected subcutaneously with 1×10^6 Meth A cells. […] Animals were monitored three times a week for tumor size and body weight. […]

Monkey safety studies = type: in vivo, cynomolgus monkeys; details: repeat dosing
Description: This is 100 times the calculated therapeutic dose ([…]).

[5] = Administration to atherosclerotic rabbits; details: rabbit, in vivo
[6] = Binding of ch3G4 and 2aG4 to phospholipid-coated ELISA plates; details: vs murine 3G4
WiDr (colon carcinoma) = experiment: WiDr colon carcinoma model; type: in vivo, mouse; details: 100 μg 3×/week from day 5; preliminary study
Description: Treatment was started on day 5, when the tumors were small (10 mice per group). 100 μg of each antibody was injected 3×/week and tumor growth monitored.

[7] = test system: syngeneic prostatic tumors; experiment: Bavituximab in rats with syngeneic prostatic tumors; details: rat, in vivo
mCMV RVG102 = experiment: Survival of mCMV-infected mice; type: in vivo, mouse; details: past 90 days post infection; untreated 25%
[8] = test system: U937 cells infected with Vaccinia virus; type: cell-based; details: m.o.i of 2, 2 days
human β2GPI = target: T1, human β2GPI (Homo sapiens, UniProt P02749); experiment: Anti-hβ2GPI ELISA; type: binding
T1 construct: Human β2GPI (hβ2GP1) was purified from human plasma essentially as described previously; from tissue; host or cells: pooled human plasma
T1 sequence (P02749 20-345): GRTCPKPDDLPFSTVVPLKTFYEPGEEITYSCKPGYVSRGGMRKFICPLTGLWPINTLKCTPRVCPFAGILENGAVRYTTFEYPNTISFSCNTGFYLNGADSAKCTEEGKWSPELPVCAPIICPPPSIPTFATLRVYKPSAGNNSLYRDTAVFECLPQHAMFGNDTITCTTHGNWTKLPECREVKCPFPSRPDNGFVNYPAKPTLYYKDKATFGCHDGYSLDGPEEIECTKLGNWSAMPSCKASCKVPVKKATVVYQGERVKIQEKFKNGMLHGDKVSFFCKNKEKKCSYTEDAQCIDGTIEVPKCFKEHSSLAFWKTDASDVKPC
Description: The assay was performed as described above with the following modifications. hβ2GPI, nicked hβ2GPI, or recombinant hβ2GPI peptides were coated on 96-well Immunlon 2HB microtiter plates overnight at a concentration of 10 μg/ml. Plates were then blocked in 1% OVA for 1 hr. at room temperature. […] Plates were incubated for 1 hr. at 37° C. and antibody binding was detected. All ELISA studies were performed at least three times.

[9] = test system: ABAE cells with exposed PS; experiment: Live-cell binding assay on LPC-treated endothelial cells; type: cell-based, bovine
Description: Adult bovine aortic endothelial (ABAE) cells were maintained in DMEM supplemented with 10% FBS and 2 mM L-glutamine. ABAE cells were removed from subconfluent cultures by brief exposure to 0.25% trypsin/0.02% EDTA, and 8-well chamber slides were seeded with 2×10^4 cells/well. Following overnight culture, cells were washed gently with PBS and treated with 200 μM lysophosphatidylcholine (LPC) to induce PS exposure.
PS exposure was determined by immunofluorescence staining. Cells were washed thoroughly in PBS, fixed in 4% paraformaldehyde (w/v), and incubated with a biotin-conjugated anti-mouse secondary antibody. Next, cells were incubated with FITC-conjugated streptavidin (Jackson Immunoresearch) to detect antibody binding. Cells were then permeablized with 0.1% Triton-X100 in PBS and counterstained with Texas Red-conjugated phalloidin (Molecular Probes, Eugene, Oreg.), and 4′, 6-diamidino-2-phenylindole (DAPI; Molecular Probes). Images were captured using a Coolsnap digital camera (Photometrics, Tucson, Ariz.) mounted on a Nikon microscope and processed with MetaVue software (Universal Imaging Corporation, Downingtown, Pa.).
The area of antibody binding was determined using MetaVue image analysis software, which is able to quantify the number of illuminated pixels in an image. Images of FITC fluorescence were used to quantify antibody binding. Corresponding images of DAPI fluorescence were used to normalize the FITC images for the number of cells present in the field. A small FITC/DAPI ratio indicates a small antibody binding area, whereas a large FITC/DAPI ratio indicates a large binding area. The FITC/DAPI ratios were used to determine increases or decreases in antibody binding area relative to a basal amount of antibody binding under the selected conditions. Five images at 200× magnification were used for each analysis. Data are presented as average relative FITC/DAPI ratios with error bars representing the standard deviation.
Cells were then washed, fixed, and stained with fluorescent markers to visualize binding of antibody to the cell surface.

OO [Hydrogen peroxide, hydrogen peroxide]
cells that bound biotinylated annexin V (ABAE cells): More than 70%
cell viability (bEnd.3 endothelial cells; H2O2 at high concentrations): 50-60%
cell viability (bEnd.3 endothelial cells; low levels of H2O2, identical to untreated control): 95%

CC(=O)O[C@@]12CO[C@@H]1C[C@H](O)[C@@]1(C)C(=O)[C@H](O)C3=C(C)[C@@H](OC(=O)[C@H](O)[C@@H](NC(=O)OC(C)(C)C)c4ccccc4)C[C@@](O)([C@@H](OC(=O)c4ccccc4)[C@H]21)C3(C)C [docetaxel]
externalization of anionic phospholipids on HUVEC (HUVEC and HMVEC; 20 pM): caused anionic phospholipids to be externalized without inducing apoptosis
3G4 binding vs untreated cells (HUVEC and HMVEC; 10 nM, 24 hrs): significant increase in 3G4 binding
3G4 binding vs untreated cells [1]: significant increase in 3G4 binding
tumor vessels that expose anionic phospholipids (tumor vessels): 60%

Nc1ccn([C@@H]2O[C@H](CO)[C@@H](O)C2(F)F)c(=O)n1 [gemcitabine, reference compound]
anti-tumor effect (tumor weight) [2]: significant anti-tumor effect

ch3G4: Human-mouse chimeric (human IgG1) version of 3G4, termed bavituximab
Serum cofactor? [3]: Yes
Relative Strength of Reactivity on ELISA [4]: PS = PA = PI = PG = CL >> PE
tumor growth vs control (MDA-MB-435 breast tumors): effectively retarded tumor growth
No adverse effect level (NOAEL) (Monkey safety studies): approximately 10 mg/kg/week
safety in atherosclerotic rabbits ([5]; listed as chimeric version of the 3G4 antibody): did not exacerbate aortic atherosclerotic lesions
safety in atherosclerotic rabbits ([5]; listed as humanized 3G4 antibody): shown to be safe
binding to phospholipid-coated ELISA plates [6]: bound at least as did well as the murine 3G4
tumor growth (WiDr (colon carcinoma)): slowed tumor growth to essentially the same degree
tumor homing of radiolabeled antibody [7]: shown to home to syngeneic prostatic tumors in rats
tumor perfusion [7]: Reduced tumor perfusion
survival (mCMV RVG102): 80%
FACS shift vs uninfected cells [8]: significant shift
binding to nicked hβ2GPI coated on microtiter plates (human β2GPI): binds nicked hβ2GPI as well as hβ2GPI
binding to LPC-treated ABAE cells ([9]; 10% MS plus purified hβ2GPI): widespread binding
binding to LPC-treated ABAE cells ([9]; 10% MS, no hβ2GPI): no antibody binding was detected
